Measured values reported in the supplement of paper PMC12490022.
± gives the uncertainty stated by the source.

test system: ozone; experiment: apparent second-order rate constant for reaction with ozone (kapp,O3) (M-1 s-1); higher = faster oxidation by ozone; conditions: pH 7; temperature: 22 C; OH radical scavenger: tBuOH 80 mM; phosphate 4 mM
Procedure: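 Apparent second-order rate constants for reaction with ozone at pH 7 were determined by multicompound competition kinetics. Mixtures of targets and competitors (10 ug/L each) were ozonated in 4 mM phosphate buffer, pH 7, with 80 mM tBuOH as OH-radical scavenger, at 22 ± 1 °C. Peak-area abatement was measured by HPLC-HRMS/MS and k was derived from ln-ln slopes against competitors with known k (R2 > 0.9, >= 10 points, slope 0.1-10). Experiments were run in triplicate on 3 days; the value is the mean over valid competitors ± SD.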

| SMILES | apparent second-order rate constant |
| --- | --- |
| CNCCCC(C#N)(c1ccc(OC)c(OC)c1)C(C)C (configuration not stated) | 2300 ± 200 |
| Cn1c(=O)[nH]c2[nH]c(=O)n(C)c2c1=O [1,7-Dimethyluric acid] | 6.6e+07 ± 1.4e+07 |
| Clc1cccc(N2CCNCC2)c1 [1-(3-Chlorophenyl)piperazine] | 2.1e+06 ± 400000 |
| Clc1ccc(C(c2ccccc2)N2CCNCC2)cc1 (configuration not stated) [1-(4-Chlorobenzhydryl)piperazine] | 7700 ± 630 |
| CC(C(=O)O)c1ccc(C(O)C(C)C)cc1 (configuration not stated) [1-Hydroxyibuprofen] | 14.7 ± 1.6 |
| CN1CCN2c3ncccc3Cc3ccccc3C2C1=O (configuration not stated) [1-Oxo-mirtazapine] | 64000 ± 14000 |
| O=c1ccn(C2OC(CO)C(O)C2(F)F)c(=O)[nH]1 (configuration not stated) [2'-Deoxy-2',2'-difluorouridine] | 562 ± 27 |
| CC=C1N(C)C(C)CC1(c1ccccc1)c1ccccc1 (configuration not stated) [2-Ethylidene-1,5-dimethyl-3,3-diphenylpyrrolidine (EDDP)] | 99000 ± 18000 |
| Cc1cc(=O)[nH]c2c1NC(=O)c1cccnc1N2C1CC1 [2-Hydroxynevirapine] | 1.56e+07 ± 1.2e+06 |
| CC(CN(C)C)CN1c2ccccc2CCc2cc(O)ccc21 (configuration not stated) [2-Hydroxytrimipramine] | 8.7e+07 ± 1.9e+07 |
| Nc1c(I)c(N)c(I)c(C(=O)O)c1I [3,5-Diamino-2,4,6-triiodobenzoic acid] | 1.02e+07 ± 700000 |
| N[C@@H](Cc1cc(I)c(O)c(I)c1)C(=O)O [3,5-Diiodo-L-tyrosine] | 2.87e+06 ± 220000 |
| COc1cc(Cc2cnc(N)nc2N)cc(O)c1OC [3-Desmethyltrimethoprim] | 1.17e+07 ± 900000 |
| Oc1cnc2c(c1)CCc1cc(Cl)ccc1C2=C1CCNCC1 [3-Hydroxydesloratadine] | 6.3e+07 ± 1.4e+07 |
| Cc1c(CO)cccc1Nc1ccccc1C(=O)O [3-Hydroxymethylmefenamic acid] | 9.3e+07 ± 2e+07 |
| O=C(O)CCNC(=O)c1ccc(Cl)cc1 [3-[(4-Chlorobenzoyl)amino]propanoic acid] | 0.194 ± 0.008 |
| O=C(O)Cc1ccccc1Nc1c(Cl)cc(O)cc1Cl [4'-Hydroxydiclofenac] | 6.95 ± 0.38 |
| COc1c(CSc2nc3ccc(OC(F)F)cc3[nH]2)[nH]ccc1=O [4'-O-Demethyl-pantoprazole sulfide] | 21000 ± 2000 |
| Nc1cc(Cl)c(S(N)(=O)=O)cc1S(N)(=O)=O [4-Amino-6-chlorobenzene-1,3-disulfonamide] | 90.5 ± 4.7 |
| Cc1c(N)c(=O)n(-c2ccccc2)n1C [4-Aminoantipyrine] | 294000 ± 26000 |
| O=C(c1ccccc1)c1ccc(Cl)cc1 [4-Chlorobenzophenone] | 0.58 ± 0.04 |
| COc1cc(Cc2cnc(N)nc2N)cc(OC)c1O [4-Desmethyltrimethoprim] | 3.6e+07 ± 86 |

| SMILES | apparent second-order rate constant |
| --- | --- |
| Cc1c(NC=O)c(=O)n(-c2ccccc2)n1C [4-Formylaminoantipyrine] | 61000 ± 14000 |
| CC(N)Cc1ccc(O)cc1 (configuration not stated) [4-Hydroxyamphetamine] | 2.48e+06 ± 220000 |
| Oc1ccc(C(F)(F)F)cc1 [4-Trifluoromethylphenol] | 1.43e+06 ± 150000 |
| Nc1[nH]c(=O)ncc1F [5-Fluorocytosine] | 24300 ± 2500 |
| O=C(O)Cc1cc(O)ccc1Nc1c(Cl)cccc1Cl [5-Hydroxydiclofenac] | 6.4e+07 ± 1.4e+07 |
| Nc1ccc(S(=O)(=O)Nc2ccc(O)cn2)cc1 [5-Hydroxysulfapyridine] | 1.6e+08 ± 3e+07 |
| CC(=O)OC1C=CC2C3Cc4ccc(O)c5c4C2(CCN3C)C1O5 (configuration not stated) [6-Acetylmorphine] | 1.29e+07 ± 1.1e+06 |
| C/C(=C\Cc1c(O)c(C)c2c(c1O)C(=O)OC2)CCC(=O)O [6-O-Desmethyl mycophenolic acid] | 9.2e+07 ± 2e+07 |
| CN1CCN2c3ncc(O)cc3Cc3ccccc3C2C1 (configuration not stated) [8-Hydroxymirtazapine] | 5.4e+07 ± 1.2e+07 |
| O=C1Nc2c(CO)ccnc2N(C2CC2)c2ncccc21 [12-Hydroxynevirapine] | 392 ± 21 |
| Nc1nc(NC2CC2)c2ncn(C3C=CC(CO)C3)c2n1 (configuration not stated) [Abacavir] | 8.8e+06 ± 600000 |
| COc1ccc2c(c1)c(CC(=O)OCC(=O)O)c(C)n2C(=O)c1ccc(Cl)cc1 [Acemethacin] | 1.04e+06 ± 86000 |
| COCCCOc1cc(CC(CC(N)C(O)CC(C(=O)NCC(C)(C)C(N)=O)C(C)C)C(C)C)ccc1OC (configuration not stated) [Aliskiren] | 22000 ± 5000 |
| O=c1ncnc2[nH][nH]cc1-2 [Allopurinol] | 3.9 ± 0.4 |
| CC[N+]1([O-])CCCC1CNC(=O)c1cc(S(=O)(=O)CC)c(N)cc1OC (configuration not stated) [Amisulpride-N-oxide] | 1190 ± 100 |
| CCN1CCCC1CNC(=O)c1cc(S(=O)(=O)CC)c(N)cc1OC (configuration not stated) [Amisulpride] | 18000 ± 1600 |
| CCOC(=O)C1=C(COCCN)NC(C)=C(C(=O)OC)C1c1ccccc1Cl (configuration not stated) [Amlodipine] | 9.9e+07 ± 2.2e+07 |
| CC(N)Cc1ccccc1 (configuration not stated) [Amphetamine] | 34 ± 4 |
| COC(=O)C1=CCC2CCC1N2C (configuration not stated) [Anhydroecgonine methyl ester] | 44000 ± 10000 |
| CN1C2CCC1C(C(=O)O)C(OC(=O)c1ccccc1)C2 (configuration not stated) [Benzoylecgonine] | 11.3 ± 1.2 |
| CC(NC(C)(C)C)C(=O)c1cccc(Cl)c1 (configuration not stated) [Bupropion] | 315 ± 15 |

Second part, the molecule after the results:

| apparent second-order rate constant | SMILES |
| --- | --- |
| 9e+06 ± 1.9e+06 | CC1(C)SC(CNC(=O)C(N)c2ccc(O)cc2)NC1C(=O)O (configuration not stated) [Amoxicillin impurity E] |
| 3.75e+06 ± 540000 | O=C1C=CC(=C2NC=CNC2=O)C=C1 [Amoxicillin impurity F] |
| 2.2e+06 ± 190000 | CC1(C)SC2C(NC(=O)C(N)c3ccc(O)cc3)C(=O)N2C1C(=O)O (configuration not stated) [Amoxicillin] |
| 845 ± 57 | CC(C)NCC(O)COc1ccc(CC(=O)O)cc1 (configuration not stated) [Atenolol acid] |
| 1580 ± 72 | CC(C)NCC(O)COc1ccc(CC(N)=O)cc1 (configuration not stated) [Atenolol] |
| 1.5e+08 ± 3e+07 | CC(C)c1c(C(=O)Nc2ccccc2)c(-c2ccccc2)c(-c2ccc(F)cc2)n1CCC(O)CC(O)CC(=O)O (configuration not stated) [Atorvastatin] |
| 1150 ± 74 | CC[C@H]1OC(=O)[C@H](C)[C@@H](O[C@H]2C[C@@](C)(OC)[C@@H](O)[C@H](C)O2)[C@H](C)[C@@H](O[C@@H]2O[C@H](C)C[C@H]([N+](C)(C)[O-])[C@H]2O)[C@](C)(O)C[C@@H](C)CN(C)[C@H](C)[C@@H](O)[C@]1(C)O [Azithromycin-N-oxide] |
| 72000 ± 17000 | CCC1OC(=O)C(C)C(OC2CC(C)(OC)C(O)C(C)O2)C(C)C(OC2OC(C)CC(N(C)C)C2O)C(C)(O)CC(C)CN(C)C(C)C(O)C1(C)O (configuration not stated) [Azithromycin] |
| < 0.401 | O=C(c1ccccc1)c1ccccc1 [Benzophenone] |
| 24.4 ± 1.3 | CC(=O)OCC(=O)[C@@]1(O)[C@@H](C)C[C@H]2[C@@H]3CCC4=CC(=O)C=C[C@]4(C)[C@@]3(F)[C@@H](O)C[C@@]21C [Betamethasone-21-acetate] |
| 35.8 ± 1.8 | CC1CC2C3CCC4=CC(=O)C=CC4(C)C3(F)C(O)CC2(C)C1(O)C(=O)CO (configuration not stated) [Betamethasone] |
| 2.6 ± 0.3 | CC(=O)Oc1ccc(C(c2ccc(OC(C)=O)cc2)c2ccccn2)cc1 [Bisacodyl] |
| < 0.401 | NC(=O)N1c2ccccc2C2OC2c2ccccc21 (configuration not stated) [Carbamazepine-10,11-epoxide] |
| 11.8 ± 1.3 | CC(Cc1ccc(C(C)C(=O)O)cc1)C(=O)O (configuration not stated) [Carboxyibuprofen] |
| 5670 ± 460 | O=C(O)COCC[N+]1([O-])CCN(C(c2ccccc2)c2ccc(Cl)cc2)CC1 (configuration not stated) [Cetirizine-N-oxide] |
| 359000 ± 31000 | O=C(O)COCCN1CCN(C(c2ccccc2)c2ccc(Cl)cc2)CC1 (configuration not stated) [Cetirizine] |
| 1.57 ± 0.17 | NS(=O)(=O)c1cc2c(cc1Cl)NC=NS2(=O)=O [Chlorothiazide] |
| 12600 ± 1100 | CN(C)CCCC1(c2ccc(F)cc2)OCc2cc(C#N)ccc21 (configuration not stated) [Citalopram] |
| < 0.401 | CC[C@H]1OC(=O)[C@H](C)[C@@H](O[C@H]2C[C@@](C)(OC)[C@@H](O)[C@H](C)O2)[C@H](C)[C@@H](O[C@@H]2O[C@H](C)C[C@H]([N+](C)(C)[O-])[C@H]2O)[C@](C)(OC)C[C@@H](C)C(=O)[C@H](C)[C@@H](O)[C@]1(C)O [Clarithromycin-N-oxide] |
| 65000 ± 15000 | CCC1OC(=O)C(C)C(OC2CC(C)(OC)C(O)C(C)O2)C(C)C(OC2OC(C)CC(N(C)C)C2O)C(C)(OC)CC(C)C(=O)C(C)C(O)C1(C)O (configuration not stated) [Clarithromycin] |
| 336000 ± 30000 | CCCC1CC(C(=O)NC(C(C)Cl)C2OC(S(C)=O)C(O)C(O)C2O)N(C)C1 (configuration not stated) [Clindamycin-sulfoxide] |
| 749000 ± 65000 | CCCC1CC(C(=O)NC(C(C)Cl)C2OC(SC)C(O)C(O)C2O)N(C)C1 (configuration not stated) [Clindamycin] |
| 23 ± 3 | CC(C)(Oc1ccc(Cl)cc1)C(=O)O [Clofibric acid] |
| 175000 ± 14000 | O=C(O)C(c1ccccc1Cl)N1CCc2sccc2C1 (configuration not stated) [Clopidogrel carboxylic acid] |
